Data reported in patent US20140314857A1, “FORMULATIONS FOR ENHANCED BIOAVAILABILITY OF ZANAMIVIR” (priority 2012, published 2014).

Experiment: Intravenous and intraduodenal (bolus) bioavailability of zanamivir from Capmul MCM L8 25, 50, 75 µL (Example 7)
Conditions: male, Sprague-Dawley, rat, in vivo; for concentration at 0.83 hr / concentration at 1 hr / concentration at 1.5 hr / concentration at 2 hr / concentration at 0.25 hr / concentration at 0.5 hr / concentration at 0.033 hr / concentration at 0.083 hr: 1.5 mg/animal, Plasma concentration; for clearance / half-life / Vd / Tmax: 1.5 mg; for clearance: CL; for half-life: T1/2, IV 1.5 mg/animal; for Vd: Vss
Excerpt: Male Sprague-Dawley rats (Hilltop Labs), 3 animals per treatment group, 250-350 grams in weight, were fitted with a jugular vein cannula (JVC). Animals intended for intraduodenal dosing were also fitted with one or more intraduodenal cannula (IDC) and those intended for intravenous dosing were fitted with a second JVC. Food was withheld from the animals for a minimum of twelve hours prior to test article administration and was returned approximately four hours post-dose. Water was supplied ad libitum.
Intraduodenal doses composed of 1.5 mg of zanamivir and varying amounts of an enhancer (glycerol or Capmul MCM L8) were injected directly into the duodenum via the IDC. Intravenous dosing was conducted by the injection of 1.5 mg of zanamivir in 200 μL of PBS through a JVC. For some experiments, the absorption enhancer was administered intraduodenally 2 hr prior to administering 1.5 mg of zanamivir in PBS through a second IDC. Each intraduodenal dose was followed with the introduction of a small air bubble (˜10 μL) in the cannula followed by a flush of 125 μL of PBS to ensure the dose was given in full. The volume of PBS used for cannula flush was consistent across the treatment groups. The cannula was tied to prevent the PBS remaining in the cannula from entering the duodenum.
Blood samples collected via the JVC, approximately 400 μL each, were obtained at 2 min, 5 min, 15 min, 30 min, 60 min, 90 min, and 120 min, with sodium heparin used as an anti-coagulant. Each sample was placed into a chilled tube containing the anticoagulant and kept on ice until centrifugation at 4° C., 3,000×g, for 5 min. The plasma supernatants were stored at −70° C. until LC-MS analysis.
Dosing solution samples were assayed by LC-MS/MS using electrospray ionization. The chromatographic system consisted of Perkin Elmer series 200 micropumps and autosampler equipped with a Waters Atlantic® HILIC Silica 3 μM, 2.1×50 mm column. The mass spectrometer was a PE Sciex API 4000 with electrospray interface in multiple reaction monitoring mode. […] Stock solutions (1 mg/mL zanamivir) were prepared in water. Standards (eight concentrations) were prepared in the appropriate matched matrix (HBSSg or Sprague-Dawley rat plasma containing sodium heparin) and diluted 50-fold with methanol. Experimental samples were treated identically.
Standards and samples were prepared in Sprague Dawley rat plasma containing sodium heparin as an anticoagulant. An eight-point calibration curve was prepared at concentrations of 1000, 750, 500, 250, 100, 50, 25, and 10 ng/mL by serial dilution. Standard samples were treated identically to the study samples.
Plasma samples were extracted by protein precipitation in methanol.
In this example, the bioavailability of Zanamivir was evaluated after intraduodenal doses in male Sprague-Dawley rats. The test compound was dosed at 1.5 mg/animal through intravenous and intraduodenal routes from normal saline and Capmul MCM L8 formulations, respectively. Plasma levels were determined by LC-MS/MS analysis. Pharmacokinetic parameters were estimated by a non-compartmental model using WinNonlin v5.2.1 software.
Each ID dose in groups 2-4 will be followed with a small air bubble ([…]) and a flush of […] of PBS to insure the dose is given in full. The volume of PBS used for cannulae flush will be maintained consistent across the animals and the treatment groups. The cannula will then be tied to help prevent the PBS remaining in the cannula from entering the duodenum.

[1] = ID bolus 1.5 mg/animal, 50 µL Capmul MCM L8, Ex.7, individual rats
[2] = ID bolus 1.5 mg/animal, 50 µL Capmul MCM L8, Ex.7, mean
[3] = intraduodenal bolus, 75 μL Capmul MCM L8, mean of 3 rats
[4] = intraduodenal bolus, 75 μL Capmul MCM L8, rat 963
[5] = intraduodenal bolus, 75 μL Capmul MCM L8, rat 964
[6] = intraduodenal bolus, 75 μL Capmul MCM L8, rat 965
[7] = iv, IV 1.5 mg/animal, Normal Saline, Ex.7, individual rats
[8] = iv, IV 1.5 mg/animal, Normal Saline, Ex.7, mean

`CC(=O)NC1C(NC(=N)N)C=C(C(=O)O)OC1C(O)C(O)CO` (stereo not drawn) [Zanamivir, 5-acetamido-4-guanidino-6-(1,2,3-trihydroxypropyl)-5,6-dihydro-4H-pyran-2-carboxylic acid] showed a concentration at 0.83 hr [1] of 2620 ng/mL, a concentration at 0.83 hr [2] of 2120 ng/mL and a concentration at 1 hr [1] of 695 ng/mL. For the same compound, the concentration at 1 hr [2] was 651 ng/mL, the concentration at 1.5 hr [1] was 216 ng/mL and the concentration at 1.5 hr [2] was 244 ng/mL. For the same compound, the concentration at 2 hr [1] was 103 ng/mL, the concentration at 2 hr [2] was 120 ng/mL and the concentration at 0.25 hr [3] was 2390 ng/mL. For the same compound, the concentration at 0.25 hr [4] was 2560 ng/mL, the concentration at 0.25 hr [5] was 1710 ng/mL and the concentration at 0.25 hr [6] was 2890 ng/mL. It also gave a concentration at 0.5 hr [3] of 1720 ng/mL, a concentration at 0.5 hr [4] of 1820 ng/mL and a concentration at 0.5 hr [5] of 1130 ng/mL. The concentration at 0.5 hr [6] was 2200 ng/mL, the concentration at 0.83 hr [3] was 2570 ng/mL and the concentration at 0.83 hr [4] was 2940 ng/mL. It also gave a concentration at 0.83 hr [5] of 1690 ng/mL, a concentration at 0.83 hr [6] of 3070 ng/mL and a concentration at 1 hr [3] of 828 ng/mL. It also gave a concentration at 1 hr [4] of 748 ng/mL, a concentration at 1 hr [5] of 807 ng/mL and a concentration at 1 hr [6] of 929 ng/mL. The concentration at 1.5 hr [3] was 349 ng/mL, the concentration at 1.5 hr [4] was 403 ng/mL and the concentration at 1.5 hr [5] was 273 ng/mL. For the same compound, the concentration at 1.5 hr [6] was 372 ng/mL, the concentration at 2 hr [3] was 154 ng/mL and the concentration at 2 hr [4] was 180 ng/mL. The concentration at 2 hr [5] was 121 ng/mL, the concentration at 2 hr [6] was 160 ng/mL and the clearance [7] was 10.5 mL/min/kg. It also gave a clearance [8] of 10.2 mL/min/kg, a half-life (iv, Normal Saline, Ex.7, individual rats) of 24.1 min and a half-life (iv, Normal Saline, Ex.7, mean) of 23.8 ± 2.1 min. For the same compound, the Vd [7] was 0.276 L/kg, the Vd [8] was 0.271 ± 0.01 L/kg and the Tmax [7] was 0 h. The Tmax [8] was 0 h, the concentration at 0.033 hr [7] was 20900 ng/mL and the concentration at 0.033 hr [8] was 21400 ng/mL. It also gave a concentration at 0.083 hr [7] of 11000 ng/mL, a concentration at 0.083 hr [8] of 12300 ng/mL and a concentration at 0.25 hr [7] of 11000 ng/mL. The concentration at 0.25 hr [8] was 10700 ng/mL, the concentration at 0.5 hr [7] was 6270 ng/mL and the concentration at 0.5 hr [8] was 6070 ng/mL. For the same compound, the concentration at 1 hr [7] was 1560 ng/mL, the concentration at 1 hr [8] was 1760 ng/mL and the concentration at 1.5 hr [7] was 741 ng/mL. For the same compound, the concentration at 1.5 hr [8] was 755 ng/mL, the concentration at 2 hr [7] was 278 ng/mL and the concentration at 2 hr [8] was 310 ng/mL.
